The values that follow come from patent US20260022098A1, “BULLEYACONITINE A DERIVATIVE WITH ANALGESIC ACTIVITY, AND PREPARATION METHOD AND APPLICATION THEREOF” (priority 2023, published 2026).

Where two headings read alike, the source gives them in different places. Marks after values point to notes of the source that are not given here.

Data set [1] relates to RAW 264.7 cells. The data set can be described thus: MTT assay, viability of RAW 264.7 cells. Format: cell-based. The settings on record: compound diluted to 30 mol/L (so in the source), 12 h. As for the experimental part:
(§1) The effect of the compound to be tested on viability of RAW 264.7 cells at a concentration of […] was assessed through MTT assay (Methylthiazolyldiphenyl-tetrazolium bromide assay), and the inhibition on NO release in the inflammatory response of LPS-induced RAW 264.7 cells at 30 µM was determined through Griess method. Specific methods were described as follows.
An MTT solution (5 mg/mL) was prepared with a PBS buffer, filter-sterilized through a 0.22 μm filter membrane, and stored protected from light at low temperature. Each compound was dissolved in DMSO to prepare a 50 mmol/L stock solution, and stored from light at low (frozen) temperature. The stock solution was diluted to 30 mol/L with DMEM (Dulbecco's modified Eagle's medium) containing 10% FBS (fetal bovine serum). RAW264.7 cells beyond third passage were added to a culture medium and gently pipetted to detach, forming a cell suspension. 10 μL of the cell suspension was applied onto a hemocytometer slide for counting, and cells were seeded into 96-well plates at a density of 6×10^3 cells per well with 100 μL of the cell suspension per well. After incubated at 37° C. with 5% CO2 for 24 h, supernatant was removed. A zero-adjustment group (CO group) received 100 μL of medium per well, the blank group (CK group) received 100 μL of DMSO (1/1000 dilution) per well, and the experimental groups received 100 μL of the test samples per well. After 12 h, supernatant was removed, and […] of MTT solution was added into each well at 120 μL per well. After incubated in COz at a constant temperature for 4 h, supernatant was removed, and DMSO was added into each well by 150 μL per well. The mixture was shaken at 50 r/min for 10 min and subjected to an absorbance test at 492 nm. Relative cell viability (x) was calculated through a formula as follows: relative cell viability (%)=(ODTest−ODCO)/(ODCK−ODCO)×100%.

Data set [2] concerns LPS-induced RAW 264.7 cells. Kind of data set: Griess assay, inhibition of NO release in LPS-induced RAW 264.7 cells. Format: cell-based. The settings on record: Griess method, compound at 30 M (so in the source), 22 h. How it is done:
as §1
RAW264.7 cells beyond third passage were added to a culture medium and gently pipetted to detach, forming a cell suspension. 10 μL of the cell suspension was applied onto a hemocytometer slide for counting, and cells were seeded into a 96-well plate at a density of 3×10^4 cells per well with 100 μL of the cell suspension per well. After incubated at 37° C. with […] for 24 h, supernatant was removed. The blank group received 100 μL of DMSO (1/1000 dilution) per well, a LPS (lipopolysaccharide) group received 100 μL of DMSO (1/1000 dilution) per well, and the experimental groups received 100 μL of the test samples per well. The LPS group received 1 μg/ml of LPS by […] per well, and the experimental groups received […] of LPS by 3 μg per well. After 22 h, 50 μL of supernatant was transferred into another 96-well plate, added with Griess Reagent I in a NO assay kit by 50 μL per well, then added with Griess Reagent II by 50 μL per well, and subjected to an absorbance test at 562 nm. Nitric oxide (NO) concentration was calculated based on a standard curve, which was specifically as follows: NO inhibition rate (%)=(ODLPS−ODTest)/(ODLPS−ODBlank)×100).

For data set [3], the system named is Kunming mice. The data set can be described thus: Acute toxicity / median lethal dose (LD50) determination, subcutaneous injection. Further details: key to Acute toxicity: if death occurred, (+) represented as positive; if no death occurred, (−) represented as negative. The settings on record: mice administered 20 mg/kg subcutaneously, presence of death within 24 h. The data set is classed as in vivo. The gist of the method:
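Kunming mice (22±2 g, 1:1 male:female, fasted 12 h), 10 per group, given compound subcutaneously at 0.1 mL/10 g in saline after 1:1 molar dissolution in 0.1 mol/L HCl. At least 5 proportional dose groups set from a 20 mg/kg pilot; 24 h survival, LD50 by Probit regression.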

The test system of data set [4] is Kunming mice. Kind of data set: Analgesic activity by acetic acid-induced writhing method (writhing inhibition rate, ED50). The data set is classed as in vivo. The settings on record: Mus musculus, sc, read-out: Analgesia rate (%) ± SEM. In a few lines: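 Kunming mice (22±2 g, 1:1 sex, 12 h fasted, 10/group) got compound s.c. (dissolved 1:1 molar with 0.1 mol/L HCl, diluted in saline); 0.7% acetic acid i.p. 15 min later, writhes counted over 15 min. Inhibition rate vs saline blank; ED50 by Probit regression over ≥5 doses.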
(In general: Writhing tests count abdominal constrictions after an irritant is injected.)

Where [5] appears, read: dosing concentration 0.05 mg/kg, subcutaneous, acetic acid-induced writhing, mice.
The mark [6] stands for this setting: dosing concentration 0.5 mg/kg, subcutaneous, acetic acid-induced writhing, mice.

For the molecule `Cc1ccc(-c2cc(C(F)(F)F)nn2-c2ccc(S(N)(=O)=O)cc2)cc1` [Celecoxib, reference compound], in data set [1], the RAW cell viability is listed as 93.09 ± 2.14 ns %. The “Inflammatory NO inhibition rate” value in data set [2] is recorded as 74 ± 2.2 %.

For the molecule `CCN1C[C@]2(COC)CC[C@H](OC)[C@@]34C5C[C@]6(OC(=O)c7ccco7)[C@@H](OC)C[C@@](OC(C)=O)(C5[C@H]6OC(=O)c5ccc(OC)cc5)C([C@H](OC)C23)[C@@H]14` (stereo partly shown) [Compound 12], in data set [1], the RAW cell viability was 119.75 ± 1.11***^ %. The Acute toxicity entry in data set [3] is recorded as “−”. The inhibition in vivo at 0.05 mg/kg in data set [4] (setting [5]) was found to be 45.7 ± 0.6%. Moreover, the inhibition in vivo at 0.5 mg/kg in data set [4] (setting [6]) was 54.2 ± 1.4%. Further, the “Inflammatory NO inhibition rate” value in data set [2] amounted to 17 ± 5.14 %.

Turning to `CCO[C@]12C[C@H](OC)[C@@]3(OC(=O)C4CCCCC4)CC(C1[C@H]3OC(=O)c1ccc(OC)cc1)[C@]13C4[C@@H](OC)C2[C@H]1N(CC)C[C@]4(COC)CC[C@@H]3OC` (stereo partly shown) [Compound 14], the RAW cell viability in data set [1] is recorded as 13.36 ± 0.9***^ %. For the same molecule, the Acute toxicity entry in data set [3] was “−”. The inhibition in vivo at 0.05 mg/kg in data set [4] (setting [5]) turned out to be 40.3 ± 1.7%. Further, the inhibition in vivo at 0.5 mg/kg in data set [4] (setting [6]) amounted to 44.4 ± 2.1%.

In the case of `CCO[C@]12C[C@H](OC)[C@@]3(OC(=O)c4cccs4)CC(C1[C@H]3OC(=O)c1cccs1)[C@]13C4[C@@H](OC)C2[C@H]1N(CC)C[C@]4(COC)CC[C@@H]3OC` (stereo partly shown) [Compound 17], the RAW cell viability in data set [1] is listed as 87.25 ± 2.09 ns %. Further, in data set [3], the Acute toxicity entry is listed as “−”. Also, the inhibition in vivo at 0.05 mg/kg in data set [4] (setting [5]) stood at 44.44 ± 0.4%. For the same molecule, the inhibition in vivo at 0.5 mg/kg in data set [4] (setting [6]) worked out at 54.7 ± 1.5%. For the same molecule, the “Inflammatory NO inhibition rate” value in data set [2] was 47 ± 3.49 %.

As to `CCO[C@]12C[C@H](OC)[C@@]3(OC(=O)C4CCOCC4)CC(C1[C@H]3OC(=O)c1ccc(OC)cc1)[C@]13C4[C@@H](OC)C2[C@H]1N(CC)C[C@]4(COC)CC[C@@H]3OC` (stereo partly shown) [Compound 24], the RAW cell viability in data set [1] is listed as 94.97 ± 7.74 ns %. Moreover, the Acute toxicity entry in data set [3] is “−”. The inhibition in vivo at 0.05 mg/kg in data set [4] (setting [5]) turned out to be 46.1 ± 1.7%. Also, in data set [4] (setting [6]), the inhibition in vivo at 0.5 mg/kg was found to be 50.9 ± 1.7%. Further, the “Inflammatory NO inhibition rate” value in data set [2] came to 8 ± 2.69 %.

With `CCO[C@]12C[C@H](OC)[C@@]3(OC(=O)c4cccnc4)CC(C1[C@H]3OC(=O)c1ccc(OC)cc1)[C@]13C4[C@@H](OC)C2[C@H]1N(CC)C[C@]4(COC)CC[C@@H]3OC` (stereo partly shown) [Compound 28], the RAW cell viability in data set [1] is 83.03 ± 4.69**^ %. Moreover, the Acute toxicity entry in data set [3] is on record as “−”. In addition, the inhibition in vivo at 0.05 mg/kg in data set [4] (setting [5]) was 36.1 ± 2.1%.

In the case of `CCO[C@]12C[C@H](OC)[C@@]3(OC(=O)c4ccc([N+](=O)[O-])cc4)CC(C1[C@H]3OC(=O)c1ccc([N+](=O)[O-])cc1)[C@]13C4[C@@H](OC)C2[C@H]1N(CC)C[C@]4(COC)CC[C@@H]3OC` (stereo partly shown) [Compound 38], the RAW cell viability in data set [1] worked out at 99.37 ± 10.29 ns %. Besides, the Acute toxicity result in data set [3] is “−”. Moreover, in data set [4], the inhibition in vivo at 0.05 mg/kg was 42.4 ± 1.5% and the inhibition in vivo at 0.5 mg/kg was found to be 56.2 ± 1%. In data set [2], the “Inflammatory NO inhibition rate” value is 23 ± 5.6 %.

For the molecule `CCO[C@]12C[C@H](OC)[C@@]3(OC(=O)c4ccc(F)cc4)CC(C1[C@H]3OC(=O)c1ccc(F)cc1)[C@]13C4[C@@H](OC)C2[C@H]1N(CC)C[C@]4(COC)CC[C@@H]3OC` (stereo partly shown) [Compound 59], in data set [1], the RAW cell viability was 7.00 ± 1.38 %. Moreover, the Acute toxicity result in data set [3] is “−”. Besides, the inhibition in vivo at 0.05 mg/kg in data set [4] (setting [5]) was 43.5 ± 2.5%. For the same molecule, the inhibition in vivo at 0.5 mg/kg in data set [4] (setting [6]) was found to be 57.6 ± 0.9%.

For `CCCC(=O)O[C@]12CC3C([C@H]1OC(=O)c1ccc(OC)cc1)[C@](OC(C)=O)(C[C@@H]2OC)C1[C@H](OC)C2[C@@]4(COC)CC[C@H](OC)[C@@]32[C@@H]1N(CC)C4` (stereo partly shown) [Compound 79], in data set [1], the RAW cell viability is given as 101.29 ± 2.63 ns %. Besides, in data set [3], the Acute toxicity result is given as “−”. The inhibition in vivo at 0.05 mg/kg in data set [4] (setting [5]) was 37.9 ± 2%. Moreover, in data set [2], the “Inflammatory NO inhibition rate” value stood at 42 ± 4.69 %.
